# Measurements: US7625870B2, “Peptide substance restoring respiratory organs function” (“Access Bioscience” CJSC, priority 2004, dated 2009)
# Peptide text beside a SMILES is read from it.
# Experiments:
# [1] = test system: bleomycine lung fibrosis in rats; test: Chronic fibrosing inflammatory process (bleomycine lung fibrosis) in rats; format: in vivo, rat; conditions: for Body weight / Relative lungs weight / Ventricular index, right ven./left ven. × 100%: 0,2 μg/kg intraperitoneally; for Blood large CIC / Blood medium CIC: blood serum
# Procedure: The experiment was carried out on 120 white mongrel rats weighing 130-160 g. The animals were divided at random into 3 groups, 40 animals in each. Then the animals were subjected to a thrice-repeated intratracheal administration of bleomycine solution (at a rate of 10.0 mg per kg of body weight) with 2 weeks interval. The tetrapeptide was administered intraperitoneally in the dose of […] of body weight in sterile 0,9% NaCl solution in the course of 7 days beginning from the 5h day after each bleomycine installation.
# 10 animals of each group were excluded from the experiment by the method of cervical dislocation on the 15, 30, 45 and 60 days after experiment onset.
# In each period there was conducted broncho-alveolar lavage fluid (BALF) test in order to estimate its cellular content, and alveolar macrophages phagocytic activity, production of superoxide-anion and total free radical production by BALF cells. In the blood and BALF there were estimated the number of circulating immune complexes (CIC). After the last bleomycin administration there was conducted lung examination.
# [2] = test system: sublethal hyperoxic lung injury in rats; test: Sublethal hyperoxic lung injury in rats; format: in vivo, rat
# Procedure: The experiment was conducted on 96 white mongrel rats weighing 200-230 g. The animals were divided into three groups: 8 intact animals, 48 control and 40 experimental animals. The animals were exposed to oxygenation by 100% oxygen during 60 hours in the running mode by normal pressure in chamber with oxygen expenditure, providing 8-10 full changes of the gas medium in one hour. Tetrapeptide administration was set out on the 3rd day of being in the normal atmosphere. Experimental animals were administered with the tetrapeptide (intraperitoneal administration in the dose of 0,2 μg/kg of body weight, dissolved in 0.9% sodium chloride solution (natural saline), 10 injections, every other day). […] There were conducted biometrical studies, estimation of BALF cytogram and AM phagocytic activity. BALF cellular content was estimated by coloring of the precipitated cells on the glass following the Leishman-Romanowsky method.
# male guinea-pigs = conditions: guinea pig, in vivo
# Source text: The general toxic effect of tetrapeptide was studied in compliance with “The manual of Experimental (Pre-Clinical) Study of New Pharmacological Substances” (2000): acute toxicity was studied in conditions of tetrapeptide single administration, subacute and chronic toxicity were investigated in conditions of long tetrapeptide administration.
# The tetrapeptide was investigated for chronic toxicity for 6 months, taking into consideration the recommended period of administration, on 100 male guinea-pigs weighing 300-350 g. The animals of the experimental groups were intramuscularly injected with the tetrapeptide in the doses 1 μg/kg, 0,1 mg/kg, 1 mg/kg in 0,5 ml of natural saline solution, once a day for 6 months. The animals of the control group were administered with natural saline solution in the same amount.
# These animals were exposed to the assessment of the amount of erythrocytes, hemoglobin, reticulocytes, thrombocytes, leucocytes, leukocytic formula, speed of erythrocytes sedimentation (SES), erythrocytes resistance in peripheral blood. Together with this there was measured the total protein content in the blood serum according to the method of Lowry, potassium and sodium content were measured according to the method of plasma spectrophotometry. On completion of the experiment the animals were subjected to a pathomorphological examination to assess the state of brain and spinal marrow, cerebrospinal ganglia, thyroid gland, adrenal glands, testes, pituitary body, heart, lungs, aorta, liver, kidneys, urinary bladder, pancreas, stomach, small intestine, large intestine, thymus, spleen, lymph nodes, bone marrow.
smiles,measurement,setting,value
"CC(C)C[C@H](NC(=O)[C@H](CC(=O)O)NC(=O)[C@H](CCC(=O)O)NC(=O)[C@H](C)N)C(=O)O [Tetrapeptide, L-alanyl-L-glutamyl-L-aspartyl-L-leucine] (H-AEDL-OH)",number of lymphocytes in BAFL,[1]; 30th day,"1,75±0,45 ×10^6 cells/lungs"
same,"AM phagocytic activity, phagocytic index",[1]; 45th day,"75,6±4,5"
same,"AM phagocytic activity, phagocytic index",[1]; 60th day,"78,6±3,2"
same,number of lymphocytes in BAFL,[1]; 60th day,"1,11±0,15 ×10^6 cells/lungs"
same,Body weight,[1]; day 15,151.6 ± 5.6 g
same,Relative lungs weight,[1]; day 15,11.3 ± 0.6 mg/g of body weight
same,"Ventricular index, right ven./left ven. × 100%",[1]; day 15,34.2 ± 1.8+ %
same,BAFL large CIC,[1]; day 15,42.6 ± 13.1 units
same,BAFL medium CIC,[1]; day 15,37.6 ± 7.6 units
same,Blood large CIC,[1]; day 15,47.2 ± 12.3 units
same,Blood medium CIC,[1]; day 15,113.4 ± 11.6+ units
same,Body weight,[1]; day 30,176.8 ± 5.8 g
same,Relative lungs weight,[1]; day 30,12.8 ± 0.4 mg/g of body weight
same,"Ventricular index, right ven./left ven. × 100%",[1]; day 30,37.2 ± 1.5*+ %
same,BAFL large CIC,[1]; day 30,52.3 ± 8.3*+ units
same,BAFL medium CIC,[1]; day 30,72.3 ± 8.1*+ units
same,Blood large CIC,[1]; day 30,85.9 ± 12.3*+ units
same,Blood medium CIC,[1]; day 30,187.6 ± 20.4*+ units
same,Body weight,[1]; day 45,195.3 ± 6.5+ g
same,Relative lungs weight,[1]; day 45,11.5 ± 0.3*+ mg/g of body weight
same,"Ventricular index, right ven./left ven. × 100%",[1]; day 45,42.3 ± 2.1*+ %
same,BAFL large CIC,[1]; day 45,76.3 ± 8.3*+ units
same,BAFL medium CIC,[1]; day 45,79.4 ± 5.4*+ units
same,Blood large CIC,[1]; day 45,135.2 ± 12.3*+ units
same,Blood medium CIC,[1]; day 45,208.7 ± 12.5*+ units
same,Body weight,[1]; day 60,234 ± 9.3+ g
same,Relative lungs weight,[1]; day 60,13.4 ± 0.5*+ mg/g of body weight
same,"Ventricular index, right ven./left ven. × 100%",[1]; day 60,46.6 ± 1.4*+ %
same,"Ventricular index, right ven./left ven. × 100%","[1]; day 60, listed as tetrapeptide","46,6±1,4%"
same,BAFL large CIC,[1]; day 60,53.2 ± 9.4+ units
same,BAFL medium CIC,[1]; day 60,41.8 ± 6.7+ units
same,Blood large CIC,[1]; day 60,81.3 ± 11.3*+ units
same,Blood medium CIC,[1]; day 60,159.4 ± 12.8+ units
same,basal superoxid-anion production in response to respiratory explosion stimulators,[1]; in words,decrease
same,lung morphologic changes as compared to control animals,"[1]; in words, after the 3rd bleomycine installation",reliably less pronounced
same,Body weight,"[2]; 0,2 μg/kg intraperitoneally, 10 injections, day not given",228 ± 6+ g
same,"Phagocytic activity of AM, Phagocytic index",[2]; day 10,50.8 ± 2.3+
same,"Phagocytic activity of AM, Phagocytic number",[2]; day 10,5.78 ± 0.42*+
same,"Phagocytic activity of AM, Phagocytic index","[2]; day 10, listed as tetrapeptide","50,8±2,3"
same,"Phagocytic activity of AM, Phagocytic index",[2]; day 20,45.8 ± 2.6*+
same,"Phagocytic activity of AM, Phagocytic number",[2]; day 20,3.35 ± 0.35+
same,"Phagocytic activity of AM, Phagocytic index","[2]; day 20, listed as tetrapeptide","45,5±2,6"
same,"Phagocytic activity of AM, Phagocytic index",[2]; day 30,42.7 ± 2.5
same,"Phagocytic activity of AM, Phagocytic number",[2]; day 30,2.83 ± 0.36
same,"Phagocytic activity of AM, Phagocytic index",[2]; day 40,40.3 ± 2.3
same,"Phagocytic activity of AM, Phagocytic number",[2]; day 40,3.45 ± 0.23
same,"Phagocytic activity of AM, Phagocytic index",[2]; day 50,38.5 ± 2.3
same,"Phagocytic activity of AM, Phagocytic number",[2]; day 50,3.21 ± 0.24
same,"pathomorphological changes manifestation (interstitial fibrosis, atelectasis foci, cellular infiltration)",[2]; in words,decrease
same,"chronic toxicity, side-effects",male guinea-pigs,does not reveal any side-effects
same,"effect on SES, erythrocytes resistance and biochemical indices of blood serum",male guinea-pigs,weren't revealed a reliable effect
same,number of leucocytes (blood morphological content),male guinea-pigs,increase
